The target of one data set is T1, BRD2(2) (Homo sapiens, UniProt P25440).
T1 construct: made in house
Briefly: Protein stability (thermal) shift assay, BRD2(2). The settings on record: compound 10 μM, protein 2 μM; average of triplicate. Type of data set: binding.

A further data set has as its target T2, BRD4(2) (Homo sapiens, UniProt O60885).
T2 construct: made in house
Briefly: Protein stability (thermal) shift assay, BRD4(2). The settings on record: compound 10 μM, protein 2 μM; average of triplicate. The format is binding.

Another data set concerns the target T3, BRD4(1) (Homo sapiens, UniProt O60885).
T3 construct: made in house
Briefly: Protein stability (thermal) shift assay, BRD4(1). Conditions: compound 10 μM, protein 2 μM; average of triplicate; read-out: ΔTm Shift, BRD4(1). Type of data set: binding.

Another data set concerns the target T4, CREBBP (Homo sapiens, UniProt Q92793).
T4 construct: small thermal shits (1.0–1.3 °C) for the bromodomain of CREBBP; made in house
Briefly: Protein stability (thermal) shift assay, CREBBP. Type of data set: binding. The settings on record: compound 10 μM, protein 2 μM; average of triplicate; read-out: ΔTm Shift, CREBBP.

The subject of data set [1] is human bromodomains (panel). Briefly: Protein stability (thermal) shift assay, whole panel of human bromodomains. The format is binding. Conditions: 10 μM compound. The procedure: Thermal melting experiments were carried out using an Mx3005p real time PCR machine (Stratagene). Proteins were buffered in 10 mM HEPES, pH 7.5, 500 mM NaCl and assayed in a 96-well plate at a final concentration of 2 μM in 20 μL volume. Compounds were added at a final concentration of 10 or 100 μM. SYPRO Orange (Molecular Probes) was added as a fluorescence probe at a dilution of 1 in 1000. Excitation and emission filters for the SYPRO-Orange dye were set to 465 and 590 nm, respectively. The temperature was raised with a step of 3 °C per minute from 25 to 96 °C, and fluorescence readings were taken at each interval. The temperature dependence of the fluorescence during the protein denaturation process was approximated by the equation [drawing 1] where ΔuG is the difference in unfolding free energy between the folded and unfolded state, R is the gas constant, and yF and yU are the fluorescence intensity of the probe in the presence of completely folded and unfolded protein, respectively.[65] The baselines of the denatured and native states were approximated by a linear fit. The observed temperature shifts, ΔTm^obs, were recorded as the difference between the transition midpoints of sample and reference wells containing protein without ligand in the same plate and determined by nonlinear least-squares fit. Temperature shifts (ΔTm^obs) for three independent measurements per proteins/compound are summarized in Supporting Information Table S1.

Data set [2] concerns the target T5, BRD9 (Homo sapiens, UniProt Q9H8M2).
T5 construct: made in house
T5 sequence (Q9H8M2 136-240 limits assumed): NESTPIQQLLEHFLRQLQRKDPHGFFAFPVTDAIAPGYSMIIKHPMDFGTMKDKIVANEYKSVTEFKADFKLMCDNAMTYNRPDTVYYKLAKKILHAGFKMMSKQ
The experiment in a line: Protein stability (thermal) shift assay, BRD9. The settings on record: compound 10 μM, protein 2 μM; average of triplicate; read-out: ΔTm Shift, BRD9. Type of data set: binding.

A further data set deals with T6, BRDT(1) (Homo sapiens, UniProt Q58F21).
T6 construct: made in house
The experiment in a line: Protein stability (thermal) shift assay, BRDT(1). Type of data set: binding. The settings on record: compound 10 μM, protein 2 μM; average of triplicate.

Another data set deals with T7, BAZ2B (Homo sapiens, UniProt Q9UIF8).
T7 construct: representative BRDs from other structural subfamilies (family I, PCAF); family III, CREBBP; family IV, BRD9; family V, BAZ2B; made in house
T7 sequence (Q9UIF8 2060-2164 limits assumed): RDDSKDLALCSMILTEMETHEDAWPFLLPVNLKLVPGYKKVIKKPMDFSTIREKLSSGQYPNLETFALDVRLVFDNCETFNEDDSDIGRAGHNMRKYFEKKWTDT
Briefly: Protein stability (thermal) shift assay, BAZ2B. Type of data set: binding. Conditions: compound 10 μM, protein 2 μM; average of triplicate; read-out: ΔTm Shift, BAZ2BA.

A further data set addresses T8, BRD3(1) (Homo sapiens, UniProt Q15059).
T8 construct: Fragments were tested in a thermal shift assay against bromodomains of the BET subfamily; made in house
The experiment in a line: Protein stability (thermal) shift assay, BRD3(1). Type of data set: binding. The settings on record: compound 10 μM, protein 2 μM; average of triplicate.

Another data set concerns the target T9, PB1(5) (Homo sapiens, UniProt Q86U86).
T9 construct: made in house
The experiment in a line: Protein stability (thermal) shift assay, PB1(5). Type of data set: binding. Conditions: compound 10 μM, protein 2 μM; average of triplicate.

A further data set deals with T10, BRD3(2) (Homo sapiens, UniProt Q15059).
T10 construct: made in house
T10 sequence (Q15059 306-415 limits assumed): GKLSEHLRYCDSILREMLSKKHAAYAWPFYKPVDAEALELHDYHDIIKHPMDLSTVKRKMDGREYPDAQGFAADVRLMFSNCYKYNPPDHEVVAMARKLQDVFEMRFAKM
The experiment in a line: Protein stability (thermal) shift assay, BRD3(2). Type of data set: binding. The settings on record: compound 10 μM, protein 2 μM; average of triplicate.

For data set [3], the target named is T5, BRD9. Briefly: Isothermal titration calorimetry, BRD9. The settings on record: for Kd / TΔS / ΔG / N (stoichiometry) / ΔHobs: ITC; for LE (ligand efficiency): LE = ΔG/N, N number of non-hydrogen atoms. The format is binding.
The target of a further data set is T11, PCAF (Homo sapiens, UniProt Q92831).
T11 construct: representative BRDs from other structural subfamilies (family I, PCAF); made in house
T11 sequence (Q92831 723-827 limits assumed): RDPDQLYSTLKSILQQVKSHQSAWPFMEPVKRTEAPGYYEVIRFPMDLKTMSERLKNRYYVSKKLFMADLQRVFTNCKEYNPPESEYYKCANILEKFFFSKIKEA
The experiment in a line: Protein stability (thermal) shift assay, PCAF. Type of data set: binding. Conditions: compound 10 μM, protein 2 μM; average of triplicate.

For a further data set, the target named is T12, BRDT(2) (Homo sapiens, UniProt Q58F21).
T12 construct: made in house
The experiment in a line: Protein stability (thermal) shift assay, BRDT(2). The format is binding. The settings on record: compound 10 μM, protein 2 μM; average of triplicate; read-out: ΔTm Shift, BRDT(2).

Another data set has as its target T13, BRD2(1) (Homo sapiens, UniProt P25440).
T13 construct: Fragments were tested in a thermal shift assay against bromodomains of the BET subfamily; made in house
Briefly: Protein stability (thermal) shift assay, BRD2(1). The settings on record: compound 10 μM, protein 2 μM; average of triplicate. The format is binding.

Data set [4] in a line: Solubility (observation in words). The format is physicochemical.
Setting [5] is: 50 mM HEPES pH 7.5, 150 mM NaCl, 15 °C, reverse titration, triplicate, read-out: KD.

Structures are written as SMILES. Read-outs that look alike come from different tables or passages of the source.

T1 sequence (P25440 344-453 limits assumed): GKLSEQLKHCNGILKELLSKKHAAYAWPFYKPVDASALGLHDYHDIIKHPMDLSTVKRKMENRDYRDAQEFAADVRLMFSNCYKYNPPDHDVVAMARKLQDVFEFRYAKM
T13 sequence (P25440 74-180 limits assumed): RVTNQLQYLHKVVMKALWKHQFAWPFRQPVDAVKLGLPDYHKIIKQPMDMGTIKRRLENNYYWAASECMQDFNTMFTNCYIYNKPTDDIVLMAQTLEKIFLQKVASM
T8 sequence (Q15059 34-140 limits assumed): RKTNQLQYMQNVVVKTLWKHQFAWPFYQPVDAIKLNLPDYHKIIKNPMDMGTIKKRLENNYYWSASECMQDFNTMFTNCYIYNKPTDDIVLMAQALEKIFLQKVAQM
T9 sequence (Q86U86 653-763 limits assumed): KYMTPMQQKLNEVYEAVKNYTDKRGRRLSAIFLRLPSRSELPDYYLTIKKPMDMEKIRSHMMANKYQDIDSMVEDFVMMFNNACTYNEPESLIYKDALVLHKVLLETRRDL
T4 sequence (Q92793 1085-1192 limits assumed): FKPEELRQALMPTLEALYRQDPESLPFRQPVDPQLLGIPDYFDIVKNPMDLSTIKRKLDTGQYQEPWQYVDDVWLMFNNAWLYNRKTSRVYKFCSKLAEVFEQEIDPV

Take `COc1ccc(Br)cc1-c1nc(Cl)nc2[nH]cnc12` [Compound 8a, 6-(5-Bromo-2-methoxyphenyl)-2-chloro-9H-purine]: the ΔTm at 10 µM on BRD2(2) is -0.564 °C; on BRD4(2), 0.3 °C; on BRD4(1), 1.3 °C; on CREBBP, 2.5 °C; at BRD9 [2], 0.9 °C; at BRDT(1) it was -0.541 °C. Also, the ΔTm at 10 µM was -0.7 °C on BAZ2B; 1 °C on BRD3(1); 1.3 °C at PB1(5); -0.00857 °C on BRD3(2); -0.4 °C at PCAF; -0.164 °C at BRDT(2). The ΔTm at 10 µM at BRD2(1) came to 0.8 °C. For the same compound, the “binding to the bromodomain panel in the ΔTm assay (in words)” value in data set [1] is recorded as “loss of affinity toward all BRDs”. The Kd on BRD9 [3] (setting [5]) stood at 7.87 ± 0.258 µM; on BRD9 [3] (read-out: dissociation constant), 7.9 µM. Moreover, on BRD9 [3] (15 °C), the TΔS result is recorded as “–1.57 kcal/mol”. Moreover, on BRD9 [3] (15 °C), the ΔG result was “–6.73 kcal/mol”. Also, the “N (stoichiometry)” value on BRD9 [3] (15 °C, reverse titration) came to 1.06 ± 0.014. The ΔHobs result at BRD9 [3] (15 °C, reverse titration) is recorded as “–8.30 ± 0.15 kcal/mol”. Moreover, the “LE (ligand efficiency)” value on BRD9 [3] worked out at 0.35.

Regarding `COc1ccc(Cl)cc1-c1nc(O)nc2[nH]cnc12` [Compound 8e, 6-(5-Chloro-2-methoxyphenyl)-2-hydroxy-9H-purine], the ΔTm at 10 µM is 1.2 °C on BRD2(2); 1.3 °C at BRD4(2); 2.3 °C on BRD4(1); 1 °C at CREBBP; -0.2 °C at BRD9 [2]; 1.5 °C on BRDT(1). The ΔTm at 10 µM is 1.2 °C at BAZ2B; 1.9 °C on BRD3(1); 1.7 °C at PB1(5); 1.3 °C on BRD3(2); 2 °C on PCAF; 1.8 °C on BRDT(2). Further, on BRD2(1), the ΔTm at 10 µM came to 2.1 °C. In addition, the “binding to the bromodomain panel in the ΔTm assay (in words)” value in data set [1] is on record as “promiscuously bound to most bromodomains”. Moreover, the Kd on BRD9 [3] (setting [5]) is 7.58 ± 0.365 µM. Moreover, the TΔS on BRD9 [3] (15 °C) is reported as 1.40 kcal/mol. Also, the ΔG entry at BRD9 [3] (15 °C) is given as “–6.75 kcal/mol”. The “N (stoichiometry)” value at BRD9 [3] (15 °C, reverse titration) is reported as 1.05 ± 0.013. The ΔHobs entry at BRD9 [3] (15 °C, reverse titration) is “–5.35 ± 0.09 kcal/mol”. On BRD9 [3], the “LE (ligand efficiency)” value turned out to be 0.36.

For `COc1ccc(Br)cc1-c1ncnc2[nH]c(C)nc12` [Compound 9a, 6-(5-Bromo-2-methoxyphenyl)-8-methyl-9H-purine], the “solubility (in words)” value in data set [4] is “low solubility”.

As to `Nc1nc(-c2cccc3c2Sc2ccccc2S3)c2nc[nH]c2n1` [Compound 10, 2-Amino-6-thianthrenyl-9H-purine], the “solubility (in words)” value in data set [4] is “low solubility”. Besides, the ΔTm at 10 µM at BRD9 [2] amounted to 0.158 °C.

These data come from PMC4403932 (Journal of Medicinal Chemistry, 2015).
